{
  "source": "patent US9249184B2",
  "about": "“Cardiac-specific protein targeting domain” (University of Pittsburgh—of the Commonwealth System of …, priority 2010, dated 2016)",
  "key": {"[1]": {"test_system": "human heart tissue", "experiment": "Ex vivo transduction of human explanted heart slices (confocal microscopy)", "settings": "separate explanted heart; 500 ul of 1 mM solution; 30 mins at 37° C.", "method": "Human explanted hearts were obtained from the operating rooms of UPMC at the time of ongoing heart transplants. Heart tissue was dissected from the proximal part or the base of the heart to avoid the more scarred, infarcted, distal tissue. Small 1-2 mm thick slices of heart tissue were taken and incubated with CTP-6CF (500 ul of a 1 mM solution) or PBS, for 30 and 60 mins, at 37° C./5% CO2. At the end of the incubation period, the heart slices were washed in PBS 6 times, fixed in 2% paraformaldehyde for 4 hrs at room temperature, followed by 30% sucrose overnight at 4° C. Next day the tissue was frozen in liquid nitrogen-chilled isopentane and stored 58\nat −80° C., for later cryosectioning, cross-staining with DRAQ5 and confocal microscopy. Confocal micrographs were obtained avoiding the edges because of the necessary damage associated with dissecting the heart tissue pieces. Confocal micrographs were taken 3-4 cell layers away from any edges.\nTo investigate if this transduction was indeed peptide specific, and not secondary to increased membrane leakiness resulting from tissue being ischemic, we incubated thin, 1-2 mm thick, heart slices, from a separate explanted heart, in only 6CF in PBS, CTP-6CF, RAN-6CF as well as 6CF labeled 6-Arginine, a known PTD. We also incubated heart slices with Evans blue dye (EBD) to assess for membrane leakiness. […]"}, "[2]": {"settings": "in vitro phage display; cited from earlier work"}, "[3]": {"settings": "in vitro phage display; cited from earlier work", "remark": "listed apart in the source"}, "[4]": {"test_system": "heart, liver, lung, spleen, kidney, skeletal muscle and brain", "experiment": "In vivo tissue transduction by biotinylated peptides coupled to Streptavidin-Alexa488 (confocal microscopy)", "set-up": "species or system Balb/c mice", "settings": "10 mg/Kg i.v.; 30 minutes post-injection", "method": "In vivo imaging studies. The initial in vivo targeting studies were performed using CTP-6CF. Female Balb/C mice were injected retro-orbitally with CTP-6CF (25 mg/Kg) and euthanized 15 minutes later, Heart cross-sections were stained for actin using phalloidin Alexa-647 (Molecular Probes, A22287) and stained for laminin using a rabbit anti-laminin antibody followed by a goat anti-rabbit Cy3 (Jackson ImmunoResearch, 111-167-003) secondary antibody. Five non-overlapping sections were taken from each heart for quantification of green fluorescence (CTP-6CF) expressed as a percentage of total area (blue; stained for actin). A control peptide (CON; […]; SEQ ID NO:15), picked from the original, unselected M13 phage library, CTP and 8-Lysine (8K, a homopolymer of lysine), a known cationic protein transduction domain, were synthesized in a biotinylated form. 200 mM of biotinylated CTP, CON and 8K, or equivalent volume of PBS, were incubated with 10 ul of Streptavidin-Alexa488 (2 ng/ml; Molecular Probes, 532354) for 2 hours at room temperature. Female Balb/c mice were intravenously (retro-orbitally) injected with peptides at a dose of 10 mg/Kg and then euthanized 30 minutes post-injection. […] For confocal microscopy, laser intensities/gains were set using negative control (PBS injected) heart tissue to minimize background fluorescence. […]"}, "[5]": {"test_system": "myocardial infarct", "experiment": "Murine infarct model (left artery ligation)", "type": "in vivo, Balb/c mice", "settings": "8K-NBD study; 5 mg/Kg/injection i.p. post-op day 0, 1, 2; day 7; vs PBS", "excerpt": "The following protocol was used and kept consistent from one set of experiments to another and between groups. Female, Balb/c, 10-20 week old mice were used for these set of studies. Female mice were chosen because of the ability to house 5/cage, as opposed to male mice (4/cage) and more importantly because female mice are able to tolerate cardiac insults better with lower post-operative mortality (19). Mice were anesthetized with intraperitoneal (i.p.) injection of 2.5% Avertin (a mixture of 15.5 ml tert-amyl alcohol to 25 grams of 2-2-2 Tribromoethanol-stock solution diluted to 2.5% concentration with PBS) at a dose of 15 μl/gm of body weight. Adequate anesthetic level was assessed by lack of response to toe-pinch and lack of a gag reflex. Mice were intubated, using direct visualization of the vocal chords, with a 22 G cannula and placed on a Harvard rodent ventilator apparatus. Tube placement was confirmed by symmetric expansion of the thoracic cavity. Mice were ventilated with ˜0.1 cc/breath tidal volume at a rate of 110 breaths/minute. […]\nMice were euthanized on post-operative day 7. […] The three sections were H&E stained, light microscopy photographs taken, and area of infarct in each section mapped out using computer software Metamorph and expressed as a percent of the whole heart. […]"}, "[6]": {"test_system": "apoptosis in heart", "experiment": "TUNEL staining of heart cross-sections in the murine infarct model", "type": "in vivo, Balb/c mice", "settings": "8K-NBD study; 5 mg/Kg/injection i.p. post-op day 0, 1, 2; day 7", "method": "A cross-section from each heart was taken and apoptosis assessed by TUNEL staining. The nuclei were stained with Dapi, and the number of TUNEL positive nuclei expressed as a percentage of total nuclei in each field. The whole heart cross-section was taken into consideration by taking 5-6 contiguous, non-overlapping sections from each heart. […] FIG. 18 illustrates the TUNEL staining data in a quantitative manner."}},
  "note": "Ends that are not written are not given here.",
  "data": [
    {"compound": "O=C(O)c1ccc2c(c1)C1(OC2=O)c2ccc(O)cc2Oc2cc(O)ccc21", "note": "[6CF, 6-carboxyfluorescene]", "values": [
      {"measurement": "uptake in human heart slices ex vivo (confocal microscopy)", "setting": "[1]", "value": "occasional cells showing fluorescence"}
    ]},
    {"compound": "Cc1cc(-c2ccc(/N=N/c3ccc4c(S(=O)(=O)[O-])cc(S(=O)(=O)[O-])c(N)c4c3O)c(C)c2)ccc1/N=N/c1ccc2c(S(=O)(=O)[O-])cc(S(=O)(=O)[O-])c(N)c2c1O.[Na+].[Na+].[Na+].[Na+]", "note": "[EBD, Evans blue dye]", "values": [
      {"measurement": "uptake in human heart slices ex vivo (confocal microscopy)", "setting": "[1]", "value": "did not show any fluorescence"}
    ]},
    {"compound": "APWHLSSQYSRT [CTP]", "values": [
      {"measurement": "affinity for binding to apatite-based, bone-like minerals", "setting": "[2]", "value": "high affinity"},
      {"measurement": "affinity for binding to two specific sulfated carbohydrates", "setting": "[3]", "value": "high affinity"}
    ]},
    {"compound": "CON-SA488: biotinylated control peptide CON (ARPLEHGSDKAT) coupled to Streptavidin-Alexa488 (also: biotinylated, coupled to streptavidin-Alexa488)", "values": [
      {"measurement": "uptake in any organ", "setting": "[4]", "value": "did not show appreciable uptake"}
    ]},
    {"compound": "KKKKKKKK-TTLDASALQME (KKKKKKKKTTLDASALQME) [8K-mutNBD]", "values": [
      {"measurement": "heart-weight to body-weight ratio", "setting": "[5]", "value": "did not differ"},
      {"measurement": "infarct size", "setting": "[5]", "value": "worse"},
      {"measurement": "TUNEL positive (apoptotic) nuclei", "setting": "[6]", "value": "lesser number of apoptotic nuclei"}
    ]}
  ]
}
